# Data as given in patent US11478478B2, “2,3-disubstituted 1-acyl-4-amino-1,2,3,4-tetrahydroquinoline derivatives and their use as bromodomain inhibitors” (GLAXOSMITHKLINE INTELLECTUAL PROPERTY (NO.2) LIMITED, priority 2013, dated 2022).
# Counter-ions that a name gives are not always drawn.
# Target: T1, BRD4 BD2 (Homo sapiens, UniProt O60885, Y97A)
# T1 construct: BRD4 (1-477) (Y97A) and (Y390A); made in house; host or cells: E. coli (pET15b vector)
# Assay: TR-FRET binding assay, BRD4 BD2 (BD1-mutated protein)
# Settings: read-out: pIC50 in the BRD4 BD2 assay (converted)
# Protocol: Time Resolved Fluorescence Resonance Energy Transfer (TR-FRET) Assay Binding was assessed using a time resolved fluorescent resonance energy transfer binding assay. This utilises a 6 His purification tag at the N-terminal of the proteins as an epitope for an anti-6 His antibody labeled with Europium chelate (PerkinElmer AD0111) allowing binding of the Europium to the proteins which acts as the donor fluorophore. A small molecule, high affinity binder of the bromodomains BRD2, BRD3, BRD4 and BRDT has been labeled with Alexa Fluor647 (Reference Compound X) and this acts as the acceptor in the FRET pair.
# In the absence of a competing compound, excitation of the Europium causes the donor to emit at λ618 nm which excites the Alexa labelled bromodomain binding compound leading to an increased energy transfer that is measurable at λ647 nM. In the presence of a sufficient concentration of a compound that can bind these proteins, the interaction is disrupted leading to a quantifiable drop in fluorescent resonance energy transfer.
# The binding of the compounds of formula (I) to Bromodomains BRD2, BRD3, BRD4 and BRDT was assessed using mutated proteins to detect differential binding to either Binding Domain 1 (BD1) or Binding Domain 2 (BD2) on the bromodomain. These single residue mutations in the acetyl lysine binding pocket greatly lower the affinity of the fluoroligand (Reference Compound X) for the mutated domain (>1000 fold selective for the non-mutated domain). Therefore in the final assay conditions, binding of the fluoroligand to the mutated domain cannot be detected and subsequently the assay is suitable to determine the binding of compounds to the single non-mutated bromodomain.
# Recombinant Human Bromodomains [(BRD2 (1-473) (Y113A) and (Y386A), BRD3 (1-435) (Y73A) and (Y348A) BRD4 (1-477) (Y97A) and (Y390A) and BRDT (1-397) (Y66A) and (Y309A)] were expressed in E. coli cells (in pET15b vector for BRD2/3/4 and in pET28a vector for BRDT) with a 6-His tag at the N-terminal. The His-tagged Bromodomain pellet was resuspended in 50 mM HEPES (pH7.5), 300 mM NaCl, 10 mM imidazole & 1 μl/ml protease inhibitor cocktail and extracted from the E. coli cells using sonication and purified using a nickel sepharose high performance column, the proteins were washed and then eluted with a linear gradient of 0-500 mM imidazole with buffer 50 mM HEPES (pH7.5), 150 mM NaCl, 500 mM imidazole, over 20 column volumes. Final purification was completed by Superdex 200 prep grade size exclusion column. Purified protein was stored at −80° C. in 20 mM HEPES pH 7.5 and 100 mM NaCl. Protein identity was confirmed by peptide mass fingerprinting and predicted molecular weight confirmed by mass spectrometry.
# All assay components were dissolved in buffer composition of 50 mM HEPES pH7.4, 50 mM NaCl, 5% Glycerol, 1 mM DTT and 1 mM CHAPS. The final concentration of bromodomain proteins were 10 nM and the Alexa Fluor647 ligand was at Kd. These components were premixed and 5 μl of this reaction mixture was added to all wells containing 50 nl of various concentrations of test compound or DMSO vehicle (0.5% DMSO final) in Greiner 384 well black low volume microtitre plates and incubated in dark for 30 minutes at rt. 5 μl of detection mixture containing 1.5 nM final concentration anti-6His Europium chelate was added to all wells and a further dark incubation of at least 30 minutes was performed. Plates were then read on the Envision platereader, (λex=317 nm, donor λem=615 nm; acceptor λem=665 nm; Dichroic LANCE dual). Time resolved fluorescent intensity measurements were made at both emission wavelengths and the ratio of acceptor/donor was calculated and used for data analysis. All data was normalized to the mean of 16 high (inhibitor control—Example 11 of WO 2011/054846A1) and 16 low (DMSO) control wells on each plate. A four parameter curve fit of the following form was then applied: y=a+((b−a)/(1+(10^/10^)^d) […]
row,Compound,IC50
1,"CC(=O)N1c2ccc(C(N)=O)cc2[C@H](Nc2ncccn2)[C@@H](C)[C@@H]1C1CC1 [Example 399, (2S,3R,4R)-1-acetyl-2-cyclopropyl-3-methyl-4-(pyrimidin-2-ylamino)-1,2,3,4-tetrahydroquinoline-6-carboxamide]",100 nM
2,"CC(=O)N1c2ccc(C3CCNCC3)cc2[C@H](Nc2cnc(C)cn2)[C@@H](C)[C@@H]1C (racemic) [Example 183, rac-1-((2S,3R,4R)-2,3-dimethyl-4-((5-methylpyrazin-2-yl)amino)-6-(piperidin-4-yl)-3,4-dihydroquinolin-1(2H)-yl)ethanone, hydrochloride]",1000 to 100000 nM
3,"CC(=O)N1c2ccc(F)cc2[C@H](Nc2cc(O)ccn2)[C@@H](C)[C@@H]1C1CC1 [Example 532, 1-((2S,3R,4R)-2-cyclopropyl-6-fluoro-4-((4-hydroxypyridin-2-yl)amino)-3-methyl-3,4-dihydroquinolin-1(2H)-yl)ethanone]",1000 to 100000 nM
4,"CC(=O)N1c2ccc(C(N)=O)cc2[C@H](Nc2ncc(Cl)cn2)[C@@H](C)[C@@H]1C1CC1 [Example 403, (2S,3R,4R)-1-acetyl-4-((5-chloropyrimidin-2-yl)amino)-2-cyclopropyl-3-methyl-1,2,3,4-tetrahydroquinoline-6-carboxamide]",100 nM
5,"CCc1ccnc(N[C@H]2c3cc(C(N)=O)ccc3N(C(C)=O)[C@@H](C3CC3)[C@@H]2C)n1 [Example 407, (2S,3R,4R)-1-acetyl-2-cyclopropyl-4-((4-ethylpyrimidin-2-yl)amino)-3-methyl-1,2,3,4-tetrahydroquinoline-6-carboxamide]",100 nM
6,"CC(=O)N1c2ccncc2C(Nc2nccc(C)n2)C(C)C1C1CC1 (racemic) [Example 598b, rac-1-((2,3,4 unknown)-2-cyclopropyl-3-methyl-4-((4-methylpyrimidin-2-yl)amino)-3,4-dihydro-1,6-naphthyridin-1(2H)-yl)ethanone]",1000 to 100000 nM
7,"CC(=O)N1c2ccc(N3CCNCC3)cc2[C@H](Nc2ccccc2)[C@@H](C)[C@@H]1C1CC1 (racemic) [Example 94, rac-1-((2S,3R,4R)-2-cyclopropyl-3-methyl-4-(phenylamino)-6-(piperazin-1-yl)-3,4-dihydroquinolin-1(2H)-yl)ethanone, hydrochloride]",100 nM
8,"CC(=O)N1c2ccc(C(N)=O)cc2[C@H](Nc2cccc(F)c2)[C@@H](C)[C@@H]1C1CC1 [Example 359, (2S,3R,4R)-1-acetyl-2-cyclopropyl-4-((3-fluorophenyl)amino)-3-methyl-1,2,3,4-tetrahydroquinoline-6-carboxamide]",100 nM
9,"CC[C@H]1[C@H](C)[C@@H](Nc2cnc(C)cn2)c2cc(N3CCNCC3)ccc2N1C(C)=O (racemic) [Example 218, rac-1-((2S,3R,4R)-2-ethyl-3-methyl-4-((5-methylpyrazin-2-yl)amino)-6-(piperazin-1-yl)-3,4-dihydroquinolin-1(2H)-yl)ethanone]",1000 to 100000 nM
10,"CC(=O)N1c2ccc(C3=CCNCC3)cc2[C@H](Nc2cccc(C)n2)[C@@H](C)[C@@H]1C1CC1 (single isomer, unassigned) [Example 189a]",100 nM
11,"CC(=O)N1c2ccc(C#N)cc2[C@H](Nc2cccc(C(N)=O)n2)[C@@H](C)[C@@H]1C1CC1 [Example 316, 6-(((2S,3R,4R)-1-acetyl-6-cyano-2-cyclopropyl-3-methyl-1,2,3,4-tetrahydroquinolin-4-yl)amino)picolinamide]",1000 to 100000 nM
12,"CC(=O)N1c2ccc(C(=O)NCCO)cc2[C@H](Nc2ccnc(C)n2)[C@@H](C)[C@@H]1C1CC1 [Example 441, (2S,3R,4R)-1-acetyl-2-cyclopropyl-N-(2-hydroxyethyl)-3-methyl-4-((2-methylpyrimidin-4-yl)amino)-1,2,3,4-tetrahydroquinoline-6-carboxamide]",1000 to 100000 nM
13,"CC(=O)N1c2ccc(N3CCNCC3)cc2[C@H](Nc2ccc(C#N)cc2)[C@@H](C)[C@@H]1C [Example 214, 4-(((2S,3R,4R)-1-acetyl-2,3-dimethyl-6-(piperazin-1-yl)-1,2,3,4-tetrahydroquinolin-4-yl)amino)benzonitrile]",100 nM
14,"CC(=O)N1c2ccc(C(N)=O)cc2[C@H](Nc2ncccc2C(N)=O)[C@@H](C)[C@@H]1C1CC1 [Example 418, (2S,3R,4R)-1-acetyl-4-((3-carbamoylpyridin-2-yl)amino)-2-cyclopropyl-3-methyl-1,2,3,4-tetrahydroquinoline-6-carboxamide]",100 nM

# Next, values leading:
row,IC50,Compound
1,1000 to 100000 nM,"CC(=O)N1c2ccc(C(N)=O)cc2[C@H](Nc2nc(C)cc(C)n2)[C@@H](C)[C@@H]1C1CC1 [Example 408, (2S,3R,4R)-1-acetyl-2-cyclopropyl-4-((4,6-dimethylpyrimidin-2-yl)amino)-3-methyl-1,2,3,4-tetrahydroquinoline-6-carboxamide]"
2,1000 to 100000 nM,"CC(=O)OC[C@@H]1[C@@H](Nc2ccccc2)c2ccccc2N(C(C)=O)[C@H]1C1CC1 (racemic) [Example 591, rac-((2S,3R,4R)-1-acetyl-2-cyclopropyl-4-(phenylamino)-1,2,3,4-tetrahydroquinolin-3-yl)methyl acetate]"
3,1000 to 100000 nM,"CNC(=O)c1ccc(N[C@H]2c3cc(N4CCN[C@@H](C)C4)ccc3N(C(C)=O)[C@@H](C3CC3)[C@@H]2C)cc1 (racemic) [Example 228, 4-(((rac-2S,3R,4R)-1-acetyl-2-cyclopropyl-3-methyl-6-((S)-3-methylpiperazin-1-yl)-1,2,3,4-tetrahydroquinolin-4-yl)amino)-N-methylbenzamide]"
4,100 nM,"COCCNC(=O)c1ccc2c(c1)[C@H](Nc1ccc(F)cn1)[C@@H](C)[C@H](C1CC1)N2C(C)=O [Example 471, (2S,3R,4R)-1-acetyl-2-cyclopropyl-4-((5-fluoropyridin-2-yl)amino)-N-(2-methoxyethyl)-3-methyl-1,2,3,4-tetrahydroquinoline-6-carboxamide]"
5,100 nM,"CC(=O)N1c2ccc(F)cc2[C@H](Nc2nc(C)ccc2C(N)=O)[C@@H](C)[C@@H]1C [Example 528, 2-(((2S,3R,4R)-1-acetyl-6-fluoro-2,3-dimethyl-1,2,3,4-tetrahydroquinolin-4-yl)amino)-6-methylnicotinamide]"
6,1000 to 100000 nM,"CC(=O)N1c2ccc(C3CCNCC3)cc2[C@H](Nc2ccc(C#N)cn2)[C@@H](C)[C@@H]1C (racemic) [Example 187, rac-6-(((2S,3R,4R)-1-acetyl-2,3-dimethyl-6-(piperidin-4-yl)-1,2,3,4-tetrahydroquinolin-4-yl)amino)nicotinonitrile]"
7,100 nM,"CC(=O)N1c2ccc(C(N)=O)cc2[C@H](Nc2ccc(C#N)cn2)[C@@H](C)[C@@H]1C1CC1 [Example 400, (2S,3R,4R)-1-acetyl-4-((5-cyanopyridin-2-yl)amino)-2-cyclopropyl-3-methyl-1,2,3,4-tetrahydroquinoline-6-carboxamide]"
8,1000 to 100000 nM,"CC(=O)N1c2ccccc2[C@@H](Nc2ccccc2)[C@H](C)[C@H]1C1CC1 (single isomer, unassigned) [Example 27b]"
9,100 nM,"CNC(=O)c1ccc2c(c1)[C@H](Nc1nccc(C)n1)[C@@H](C)[C@H](C1CC1)N2C(C)=O (racemic) [Example 240, rac-(2S,3R,4R)-1-acetyl-2-cyclopropyl-N,3-dimethyl-4-((4-methylpyrimidin-2-yl)amino)-1,2,3,4-tetrahydroquinoline-6-carboxamide]"
